Columns and labels:
[1] = biological target: T1, WRN [UniPro: Q14191 (WRN_HUMAN), N500-C946] (Homo sapiens (Human), UniProt Q14191); assay: WRN ATPase assay (ADP-Glo); assay type: biochemical; details: WRN enzymatic activity assay
[2] = biological target: T1, WRN [UniPro: Q14191 (WRN_HUMAN), N500-C946]; assay: WRN unwinding assay (FORKF DNA, fluorescence); assay type: biochemical; details: Table 14

T1 sequence (Q14191 500-946): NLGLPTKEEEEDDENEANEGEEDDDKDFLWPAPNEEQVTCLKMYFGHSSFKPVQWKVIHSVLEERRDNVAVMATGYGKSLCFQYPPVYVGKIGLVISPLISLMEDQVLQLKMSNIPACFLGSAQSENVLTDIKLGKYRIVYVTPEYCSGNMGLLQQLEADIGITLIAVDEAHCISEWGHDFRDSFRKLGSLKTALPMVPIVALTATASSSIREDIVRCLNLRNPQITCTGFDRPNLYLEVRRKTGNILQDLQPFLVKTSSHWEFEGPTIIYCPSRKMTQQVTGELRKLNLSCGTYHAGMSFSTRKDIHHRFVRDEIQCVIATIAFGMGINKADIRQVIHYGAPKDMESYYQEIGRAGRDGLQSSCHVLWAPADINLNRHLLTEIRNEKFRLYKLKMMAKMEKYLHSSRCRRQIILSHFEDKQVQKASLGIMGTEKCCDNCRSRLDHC

Structure (SMILES) | IC50 [1] [nM] | IC50 [2] [nM]
CCc1c(N2CCN(C(=O)C(=O)N(C)C)CC2)c(=O)n2nc(C3=CCOCC3)nc2n1CC(=O)Nc1ccc(C(F)(F)F)cc1Cl [Example 326, 2-(4-(4-(2-((2-Chloro-4-(trifluoromethyl)phenyl)amino)-2-oxoethyl)-2-(3,6-dihydro-2H-pyran-4-yl)-5-ethyl-7-oxo-4,7-dihydro-[1,2,4]triazolo[1,5-a]pyrimidin-6-yl)piperazin-1-yl)-N,N-dimethyl-2-oxoacetamide] | 100 to 1000 | < 100
CCc1c(N2CCN(C(=O)C(=O)Nc3ccccc3)CC2)c(=O)n2nc(C3=CCOCC3)nc2n1CC(=O)Nc1ccc(C(F)(F)F)cc1Cl [Example 327, 2-(4-(4-(2-((2-Chloro-4-(trifluoromethyl)phenyl)amino)-2-oxoethyl)-2-(3,6-dihydro-2H-pyran-4-yl)-5-ethyl-7-oxo-4,7-dihydro-[1,2,4]triazolo[1,5-a]pyrimidin-6-yl)piperazin-1-yl)-2-oxo-N-phenylacetamide] | 100 to 1000 | 100 to 1000
CCc1c(N2CCN(C(=O)C(=O)NC)CC2)c(=O)n2nc(C3=CCOCC3)nc2n1CC(=O)Nc1ccc(C(F)(F)F)cc1Cl [Example 329, 2-(4-(4-(2-((2-Chloro-4-(trifluoromethyl)phenyl)amino)-2-oxoethyl)-2-(3,6-dihydro-2H-pyran-4-yl)-5-ethyl-7-oxo-4,7-dihydro-[1,2,4]triazolo[1,5-a]pyrimidin-6-yl)piperazin-1-yl)-N-methyl-2-oxoacetamide] | 100 to 1000 | 100 to 1000
CCc1c(N2CCN(C(=O)C(=O)Nc3cscn3)CC2)c(=O)n2nc(C3=CCOCC3)nc2n1CC(=O)Nc1ccc(C(F)(F)F)cc1Cl [Example 335, 2-(4-(4-(2-((2-Chloro-4-(trifluoromethyl)phenyl)amino)-2-oxoethyl)-2-(3,6-dihydro-2H-pyran-4-yl)-5-ethyl-7-oxo-4,7-dihydro-[1,2,4]triazolo[1,5-a]pyrimidin-6-yl)piperazin-1-yl)-2-oxo-N-(thiazol-4-yl)acetamide] | 100 to 1000 | < 100
CCNC(=O)C(=O)N1CCN(c2c(CC)n(CC(=O)Nc3ccc(C(F)(F)F)cc3Cl)c3nc(C4=CCOCC4)nn3c2=O)CC1 [Example 336, 2-(4-(4-(2-((2-Chloro-4-(trifluoromethyl)phenyl)amino)-2-oxoethyl)-2-(3,6-dihydro-2H-pyran-4-yl)-5-ethyl-7-oxo-4,7-dihydro-[1,2,4]triazolo[1,5-a]pyrimidin-6-yl)piperazin-1-yl)-N-ethyl-2-oxoacetamide] | 100 to 1000 | 100 to 1000
CCc1c(N2CCN(C(=O)C(=O)Nc3ccncn3)CC2)c(=O)n2nc(C3=CCOCC3)nc2n1CC(=O)Nc1ccc(C(F)(F)F)cc1F [Example 340, 2-(4-(2-(3,6-Dihydro-2H-pyran-4-yl)-5-ethyl-4-(2-((2-fluoro-4-(trifluoromethyl)phenyl)amino)-2-oxoethyl)-7-oxo-4,7-dihydro-[1,2,4]triazolo[1,5-a]pyrimidin-6-yl)piperazin-1-yl)-2-oxo-N-(pyrimidin-4-yl)acetamide] | 100 to 1000 | 100 to 1000
CCc1c(N2CCN(C(=O)C(=O)Nc3nncs3)CC2)c(=O)n2nc(C3=CCOCC3)nc2n1CC(=O)Nc1ccc(C(F)(F)F)cc1F [Example 342, 2-(4-(2-(3,6-Dihydro-2H-pyran-4-yl)-5-ethyl-4-(2-((2-fluoro-4-(trifluoromethyl)phenyl)amino)-2-oxoethyl)-7-oxo-4,7-dihydro-[1,2,4]triazolo[1,5-a]pyrimidin-6-yl)piperazin-1-yl)-2-oxo-N-(1,3,4-thiadiazol-2-yl)acetamide] | < 100 | < 100
CCc1c(N2CCN(C(=O)CNC(=O)c3ccccc3F)CC2)c(=O)n2nc(C3=CCOCC3)cc2n1CC(=O)Nc1ccc(C(F)(F)F)cc1Cl [Example 343, N-(2-(4-(4-(2-((2-Chloro-4-(trifluoromethyl)phenyl)amino)-2-oxoethyl)-2-(3,6-dihydro-2H-pyran-4-yl)-5-ethyl-7-oxo-4,7-dihydropyrazolo[1,5-a]pyrimidin-6-yl)piperazin-1-yl)-2-oxoethyl)-2-fluorobenzamide] | < 100 | < 100
CCc1c(N2CCN(C(=O)CNC(=O)c3ccccc3F)CC2)c(=O)n2nc(N3CCOCC3)cc2n1CC(=O)Nc1ccc(C(F)(F)F)cc1Cl [Example 344, N-(2-(4-(4-(2-((2-chloro-4-(trifluoromethyl)phenyl)amino)-2-oxoethyl)-5-ethyl-2-morpholino-7-oxo-4,7-dihydropyrazolo[1,5-a]pyrimidin-6-yl)piperazin-1-yl)-2-oxoethyl)-2-fluorobenzamide] | 100 to 1000 | 100 to 1000
CCc1c(N2CCN(C(=O)C(F)N3C(=O)c4ccccc4C3=O)CC2)c(=O)n2nc(C3=CCOCC3)nc2n1CC(=O)Nc1ccc(C(F)(F)F)cc1Cl (centres unmarked) [Example 345, N-(2-chloro-4-(trifluoromethyl)phenyl)-2-(2-(3,6-dihydro-2H-pyran-4-yl)-6-(4-(2-(1,3-dioxoisoindolin-2-yl)-2-fluoroacetyl)piperazin-1-yl)-5-ethyl-7-oxo-[1,2,4]triazolo[1,5-a]pyrimidin-4(7H)-yl)acetamide] | 100 to 1000 | 100 to 1000

Further lines, results first:

IC50 [1] [nM] | IC50 [2] [nM] | Structure (SMILES)
< 100 | < 100 | CCc1c(N2CCN(C(=O)C(=O)Nc3cc(C)ns3)CC2)c(=O)n2nc(C3=CCOCC3)nc2n1CC(=O)Nc1ccc(C(F)(F)F)cc1F [Example 325, 2-(4-(2-(3,6-Dihydro-2H-pyran-4-yl)-5-ethyl-4-(2-((2-fluoro-4-(trifluoromethyl)phenyl)amino)-2-oxoethyl)-7-oxo-4,7-dihydro-[1,2,4]triazolo[1,5-a]pyrimidin-6-yl)piperazin-1-yl)-N-(3-methylisothiazol-5-yl)-2-oxoacetamide]
< 100 | < 100 | CCc1c(N2CCN(C(=O)C(=O)NOC)CC2)c(=O)n2nc(C3=CCOCC3)nc2n1CC(=O)Nc1ccc(C(F)(F)F)cc1Cl [Example 330, 2-(4-(4-(2-((2-Chloro-4-(trifluoromethyl)phenyl)amino)-2-oxoethyl)-2-(3,6-dihydro-2H-pyran-4-yl)-5-ethyl-7-oxo-4,7-dihydro-[1,2,4]triazolo[1,5-a]pyrimidin-6-yl)piperazin-1-yl)-N-methoxy-2-oxoacetamide]
< 100 | < 100 | CCc1c(N2CCN(C(=O)C(=O)Nc3cc(C)[nH]n3)CC2)c(=O)n2nc(C3=CCOCC3)nc2n1CC(=O)Nc1ccc(C(F)(F)F)cc1Cl [Example 331, 2-(4-(4-(2-((2-Chloro-4-(trifluoromethyl)phenyl)amino)-2-oxoethyl)-2-(3,6-dihydro-2H-pyran-4-yl)-5-ethyl-7-oxo-4,7-dihydro-[1,2,4]triazolo[1,5-a]pyrimidin-6-yl)piperazin-1-yl)-N-(5-methyl-1H-pyrazol-3-yl)-2-oxoacetamide]
< 100 | < 100 | CCc1c(N2CCN(C(=O)C(=O)Nc3nccs3)CC2)c(=O)n2nc(C3=CCOCC3)nc2n1CC(=O)Nc1ccc(C(F)(F)F)cc1Cl [Example 332, 2-(4-(4-(2-((2-Chloro-4-(trifluoromethyl)phenyl)amino)-2-oxoethyl)-2-(3,6-dihydro-2H-pyran-4-yl)-5-ethyl-7-oxo-4,7-dihydro-[1,2,4]triazolo[1,5-a]pyrimidin-6-yl)piperazin-1-yl)-2-oxo-N-(thiazol-2-yl)acetamide]
< 100 | < 100 | CCc1c(N2CCN(C(=O)C(=O)Nc3ccn[nH]3)CC2)c(=O)n2nc(C3=CCOCC3)nc2n1CC(=O)Nc1ccc(C(F)(F)F)cc1Cl [Example 333, 2-(4-(4-(2-((2-Chloro-4-(trifluoromethyl)phenyl)amino)-2-oxoethyl)-2-(3,6-dihydro-2H-pyran-4-yl)-5-ethyl-7-oxo-4,7-dihydro-[1,2,4]triazolo[1,5-a]pyrimidin-6-yl)piperazin-1-yl)-2-oxo-N-(1H-pyrazol-5-yl)acetamide]
< 100 | < 100 | CCc1c(N2CCN(C(=O)C(=O)Nc3cncs3)CC2)c(=O)n2nc(C3=CCOCC3)nc2n1CC(=O)Nc1ccc(C(F)(F)F)cc1Cl [Example 334, 2-(4-(4-(2-((2-Chloro-4-(trifluoromethyl)phenyl)amino)-2-oxoethyl)-2-(3,6-dihydro-2H-pyran-4-yl)-5-ethyl-7-oxo-4,7-dihydro-[1,2,4]triazolo[1,5-a]pyrimidin-6-yl)piperazin-1-yl)-2-oxo-N-(thiazol-5-yl)acetamide]
< 100 | < 100 | CCc1c(N2CCN(C(=O)C(=O)NOCc3ccccc3)CC2)c(=O)n2nc(C3=CCOCC3)nc2n1CC(=O)Nc1ccc(C(F)(F)F)cc1Cl [Example 337, N-(Benzyloxy)-2-(4-(4-(2-((2-chloro-4-(trifluoromethyl)phenyl)amino)-2-oxoethyl)-2-(3,6-dihydro-2H-pyran-4-yl)-5-ethyl-7-oxo-4,7-dihydro-[1,2,4]triazolo[1,5-a]pyrimidin-6-yl)piperazin-1-yl)-2-oxoacetamide]
< 100 | < 100 | CCc1c(N2CCN(C(=O)CNC(=O)CC3CCCO3)CC2)c(=O)n2nc(C3=CCOCC3)nc2n1CC(=O)Nc1ccc(C(F)(F)F)cc1Cl (centres unmarked) [Example 338, N-(2-Chloro-4-(trifluoromethyl)phenyl)-2-(2-(3,6-dihydro-2H-pyran-4-yl)-5-ethyl-7-oxo-6-(4-((2-(tetrahydrofuran-2-yl)acetyl)glycyl)piperazin-1-yl)-[1,2,4]triazolo[1,5-a]pyrimidin-4(7H)-yl)acetamide]
< 100 | < 100 | CCc1c(N2CCN(C(=O)C(=O)Nc3ccno3)CC2)c(=O)n2nc(C3=CCOCC3)nc2n1CC(=O)Nc1ccc(C(F)(F)F)cc1F [Example 341, 2-(4-(2-(3,6-Dihydro-2H-pyran-4-yl)-5-ethyl-4-(2-((2-fluoro-4-(trifluoromethyl)phenyl)amino)-2-oxoethyl)-7-oxo-4,7-dihydro-[1,2,4]triazolo[1,5-a]pyrimidin-6-yl)piperazin-1-yl)-N-(isoxazol-5-yl)-2-oxoacetamide]
